Like-named read-outs stand apart in the source and are kept apart here. One block for each compound: values may come before it.
Legend:
[1] = Bioavailability test: blood drug concentration after oral administration of suspensions to rats; type: in vivo; conditions: rat, suspension in distilled water, male rats fasted for 12 hours
Experimental: In order to investigate the bioavailability of the powder according to the present invention, cilostazol powder prepared in Example 6 and unprocessed cilostazole as a control group (average particle size: 3 to 5 μm, Dongwoo Co., Ltd.) were suspended in distilled water, respectively. The suspensions having equivalent amounts of cilostazole were each orally administered to three male rats fasted for 12 hours. Blood samples were taken from the ophthalmic vein of the rats immediately after the administration, and 0.5, 1, 2, 4 and 7 hours after the administration to determined the blood drug concentration changes with time. Also the maximum blood concentration (Cmax, μg/ml) and the area under the blood drug concentration-time curve (AUC, μg*hr/ml) were calculated, and the results are shown in Table 8.

[2] = Particle size of cilostazol (lactose/SLS ratio) after redispersion of slurry or dried powder in distilled water, laser scattering particle size analyzer; type: physicochemical
Experimental: 0.45 g of cilostazol (Dongwoo Co., Ltd.) and 0.15 g of hydroxypropyl cellulose were added to 5.1 ml of the saturated aqueous solution of lactose. […] The slurry mixture thus obtained was high-pressure filtered (pressure: 640 mmHg) using a sound pressure and freeze dried for 1 day to obtain powders.

[3] = as above; type: physicochemical; conditions: Lactose 225 g, SLS 225 g
[4] = Particle size of active ingredient (cilostazol, fenofibrate, itraconazole) powders redispersed in distilled water, laser scattering particle size analyzer; type: physicochemical; conditions: powder redispersed in aqueous solution, surface stabilizer HPC, dispersion agent SUCROSE
Experimental: 1.2 g of each of the active ingredient, 0.2 g of hydroxypropyl cellulose and 1.2 g of sucrose were added to 6.1 g of distilled water containing a saturated solution of sucrose, an appropriate amount of zirconia bead having the average particle size of 1 mm were added thereto, and the mixture was roll ground at a rate of 108 rpm for 5 days. The slurry mixture thus obtained was screened to remove the beads, and the residue was high-pressure filtered (pressure: 640 mmHg) using the sound pressure, followed by vacuum drying to obtain powders.

[5] = Experimental: 0.15 g of naproxen (TCI Chem) having an average particle size of 3 to 10 μm, 0.15 g of lactose and 0.03 g of hydroxypropy cellulose (HPC) were added to 3.4 ml of a saturated aqueous solution of lactose, and the mixture was wet ground using an oscillating mill at the room temperature for 30 minutes. The slurry mixture thus obtained was centrifuged at 4° C., 15,000 rpm for 30 minutes, and the residue in the bottom layer was vacuum dried for 24 hours to obtain a powder.
In the above process, the averaged particle size of naproxen particles was measured for 1) a test solution obtained by redispering 0.02 ml of the slurry mixture obtained after wet grinding in 10 ml of distilled water, and 2) an another test solution obtained by redispersing 0.01 g of the dried powder in 8 ml of distilled water, by using a laser scattering particle size analyzer (LA-910, Horiba). The redispersion was conducted by shaking the mixture with a hand.
Additional powders were prepared by repeating the above-mentioned procedure except for using sucrose, mannitol, trehalose, sorbitol and xylitol, respectively, instead of lactose, and naproxen particle sizes were measured by the same procedure.

[6] = Particle size of tacrolimus in redispersed powder with and without ultrasonic irradiation, laser scattering particle size analyzer; type: physicochemical; conditions: lactose
Experimental: 0.01 g of each of the powders thus obtained was redispersed using an ultrasonic irradiation (frequency: 39 kHz). The particle of the tacrolimus was measured by using a laser scattering particle size analyzer (LA0910, Horiba) for each of the test solution with and without the ultrasonic irradiation, and the results are shown in Table 4.

[7] = drying powder redispersed, Lactose 90 g, SLS 360 g
[8] = drying powder redispersed, Lactose 360 g, SLS 90 g
[9] = slurry mixture redispersed after wet grinding, Lactose 90 g, SLS 360 g
[10] = slurry mixture redispersed after wet grinding, Lactose 225 g, SLS 225 g
[11] = slurry mixture redispersed after wet grinding, Lactose 360 g, SLS 90 g
[12] = HPC, amount of lactose 20% by weight of active ingredient
[13] = HPC, amount of lactose 60% by weight of active ingredient
[14] = HPC, amount of lactose 100% by weight of active ingredient
[15] = HPC, amount of lactose 140% by weight of active ingredient
[16] = HPC, amount of lactose 180% by weight of active ingredient
[17] = dispersion agent Lactose, surface stabilizer PVP 10,000
[18] = dispersion agent Lactose, surface stabilizer PVP 29,000
[19] = dispersion agent Lactose, surface stabilizer PVP 55,000
[20] = dispersion agent Lactose, surface stabilizer PVP 130,000
[21] = dried powder redispersed in distilled water, surface stabilizer HPC, dispersion agent Lactose
[22] = dried powder redispersed, HPC, dispersion agent Mannitol
[23] = dried powder redispersed, HPC, dispersion agent Sorbitol
[24] = dried powder redispersed, HPC, dispersion agent Sucrose
[25] = dried powder redispersed, HPC, dispersion agent Trehalose
[26] = dried powder redispersed, HPC, dispersion agent Xylitol

Cmax ([1]; read-out: Cmax (maximum blood concentration)): 150 ± 80 ng/mL | AUC ([1]; samples to 7 hours, read-out: AUC (area under the blood drug concentration-time curve)): 580 ± 90 ng·h/mL
Structure (SMILES): O=C1CCc2cc(OCCCCc3nnnn3C3CCCCC3)ccc2N1 [Cilostazol raw material, cilostazol]

Average particle size [2, 7]: 350 nm | Particle size range D10 [2, 7]: 230 nm | Particle size range D50 [2, 7]: 340 nm | Particle size range D90 [2, 7]: 390 nm | Average particle size ([2]; drying powder redispersed, Lactose 225 g, SLS 225 g): 360 nm | Average particle size [2, 8]: 200 nm | Particle size range D10 [2, 8]: 150 nm | Particle size range D50 [2, 8]: 200 nm | Particle size range D90 [2, 8]: 270 nm | Average particle size [2, 9]: 340 nm | Particle size range D10 [2, 9]: 230 nm | Particle size range D50 [2, 9]: 340 nm | Particle size range D90 [2, 9]: 470 nm | Average particle size [2, 10]: 340 nm | Particle size range D10 [2, 10]: 230 nm | Particle size range D90 [2, 10]: 470 nm | Average particle size [2, 11]: 190 nm | Particle size range D10 [2, 11]: 140 nm | Particle size range D50 [2, 11]: 180 nm | Particle size range D90 [2, 11]: 250 nm | Particle size range D10 ([3]; drying powder redispersed): 240 nm | Particle size range D50 ([3]; drying powder redispersed): 350 nm | Particle size range D90 ([3]; drying powder redispersed): 490 nm | Particle size range D50 ([3]; slurry mixture redispersed after wet grinding): 330 nm | Average particle size [4]: 170 nm | Range of particle size ([4]; in nm): 120~228
Structure (SMILES): O=C1CCc2cc(OCCCCc3nnnn3C3CCCCC3)ccc2N1 [Cilostazol, cilostazol]

Average particle size [5, 12]: 3,025 nm | Particle Size (D10~D90) [5, 12]: 154~4,292 nm | Average particle size [5, 13]: 500 nm | Particle Size (D10~D90) [5, 13]: 339~629 nm | Average particle size [5, 14]: 164 nm | Particle Size (D10~D90) [5, 14]: 40~260 nm | Average particle size [5, 15]: 391 nm | Particle Size (D10~D90) [5, 15]: 109~316 nm | Average particle size [5, 16]: 208 nm | Particle Size (D10~D90) [5, 16]: 108~310 nm | Average particle size [5, 17]: 16,800 nm | Particle Size (D10~D90) [5, 17]: 868.3~507.1 nm | Average particle size [5, 18]: 156.9 nm | Particle Size (D10~D90) [5, 18]: 95.9~208.7 nm | Average particle size [5, 19]: 192.4 nm | Particle Size (D10~D90) [5, 19]: 120.8~250.3 nm | Average particle size [5, 20]: 275.8 nm | Particle Size (D10~D90) [5, 20]: 150.6~417.5 nm | Average particle size [5, 21]: 164.1 nm | Particle Size (D10~D90) [5, 21]: 40.3~259.6 nm | Average particle size ([5]; dried powder redispersed in distilled water, surface stabilizer HPC, dispersion agent Lactose, listed as naproxen): about 164 nm | Average particle size [5, 22]: 450 nm | Particle Size (D10~D90) [5, 22]: 319.8~564.6 nm | Average particle size [5, 23]: 413.6 nm | Particle Size (D10~D90) [5, 23]: 280.4~532.7 nm | Average particle size [5, 24]: 297.1 nm | Particle Size (D10~D90) [5, 24]: 192.9~393.9 nm | Average particle size [5, 25]: 241.6 nm | Particle Size (D10~D90) [5, 25]: 162.8~312.5 nm | Average particle size [5, 26]: 637.9 nm | Particle Size (D10~D90) [5, 26]: 291.3~675.9 nm | average particle size of naproxen particles ([5]; slurry mixture after wet grinding redispersed in distilled water, HPC, lactose): about 133 nm
Structure (SMILES): COc1ccc2cc([C@H](C)C(=O)O)ccc2c1 [Naproxen, naproxen]

Particle size according to the ultrasonic irradiation time ([6]; surface stabilizer Hydroxyproply cellulose, 0 minute ultrasonic irradiation): 4,980 nm | Particle size according to the ultrasonic irradiation time ([6]; surface stabilizer Hydroxyproply cellulose, 1 minute ultrasonic irradiation (39 kHz)): 220 nm | Particle size according to the ultrasonic irradiation time ([6]; surface stabilizer Poloxamer 407, 0 minute ultrasonic irradiation): 510 nm | Particle size according to the ultrasonic irradiation time ([6]; surface stabilizer Poloxamer 407, 1 minute ultrasonic irradiation (39 kHz)): 420 nm | Particle size according to the ultrasonic irradiation time ([6]; surface stabilizer Polyvinylpyrrolidone, 0 minute ultrasonic irradiation): 1,561 nm | Particle size according to the ultrasonic irradiation time ([6]; surface stabilizer Polyvinylpyrrolidone, 1 minute ultrasonic irradiation (39 kHz)): 610 nm
Structure (SMILES): C=CC[C@@H]1/C=C(\C)C[C@H](C)C[C@H](OC)[C@H]2O[C@@](O)(C(=O)C(=O)N3CCCC[C@H]3C(=O)O[C@H](/C(C)=C/[C@@H]3CC[C@@H](O)[C@H](OC)C3)[C@H](C)[C@@H](O)CC1=O)[C@H](C)C[C@@H]2OC [tacrolimus]

Reference: US20100003332A1, “Process For Preparing Powder Comprising Nanoparticles of Sparingly Soluble Drug” (Amorepacific Corporation, priority 2006, published 2010)
